Key:
Assay in all cases: relative viability (nuclei count vs DMSO), 5 days (fraction); higher = more cells survive
[1] = compound: CS(=O)(=O)c1ccc(-c2cnc(N)c(C(=O)Nc3ccccc3)n2)cc1 [VE-821] + O=C(CCCCCCC(=O)Nc1ccccc1)NO [Vorinostat] (partner 1 µM)
Summary of the method: (§1)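 Cells from lung cancer lines were seeded into 1536-well plates and, one day later, dosed by pin tool. Treatments were either a single drug or a fixed dose of an anchor drug with five library-drug doses (not always all listed) in √10 steps. After 5 days, nuclei were stained in a one-step fixation (final 0.05% Triton X-100, 1% formaldehyde, 1 ug/ml Hoechst) and counted on 4× images, and relative viability is the treated-to-vehicle nuclei ratio, as the median of duplicate plates.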

[2] = compound: CS(=O)(=O)c1ccc(C(=O)Nc2ccc(Cl)c(-c3ccccn3)c2)c(Cl)c1 [Vismodegib] + O=C(CCCCCCC(=O)Nc1ccccc1)NO [Vorinostat] (partner 1 µM)
Summary of the method: as §1

[3] = compound: CS(=O)(=O)c1ccc(-c2cnc(N)c(C(=O)Nc3ccccc3)n2)cc1 [VE-821] + O=C(c1cc(Cc2n[nH]c(=O)c3ccccc23)ccc1F)N1CCN(C(=O)C2CC2)CC1 [Olaparib] (partner 8 µM)
Summary of the method: as §1

[4] = compound: CS(=O)(=O)c1ccc(-c2cnc(N)c(C(=O)Nc3ccccc3)n2)cc1 [VE-821] + NC(=O)Nc1cc(-c2cccc(F)c2)sc1C(=O)N[C@H]1CCCNC1 [AZD7762] (partner 0.2 µM)
Summary of the method: as §1

Row | Cell Line | relative viability ([1]; first compound 0.08 µM) | relative viability ([1]; first compound 0.253 µM) | relative viability ([1]; first compound 0.8 µM) | relative viability ([1]; first compound 2.53 µM) | relative viability ([1]; first compound 8 µM) | relative viability ([2]; first compound 0.08 µM) | relative viability ([2]; first compound 0.253 µM) | relative viability ([2]; first compound 0.8 µM) | relative viability ([2]; first compound 2.53 µM) | relative viability ([2]; first compound 8 µM) | relative viability ([3]; first compound 0.08 µM) | relative viability ([3]; first compound 0.253 µM) | relative viability ([3]; first compound 0.8 µM) | relative viability ([3]; first compound 2.53 µM) | relative viability ([3]; first compound 8 µM) | relative viability ([4]; first compound 0.08 µM) | relative viability ([4]; first compound 0.253 µM) | relative viability ([4]; first compound 0.8 µM) | relative viability ([4]; first compound 2.53 µM) | relative viability ([4]; first compound 8 µM)
1 | NCI-H2170 | 0.923 | 0.687 | 0.872 | 0.805 | 0.635 | 0.83 | 0.712 | 0.824 | 0.815 | 0.838 | 0.656 | 0.487 | 0.395 | 0.276 | 0.21 | 0.842 | 0.766 | 0.771 | 0.394 | 0.199
2 | NCI-H1975 | 0.749 | 0.697 | 0.706 | 0.647 | 0.516 | 0.63 | 0.683 | 0.738 | 0.744 | 0.687 | 0.883 | 0.715 | 0.672 | 0.57 | 0.334 | 0.75 | 0.69 | 0.667 | 0.604 | 0.462
3 | NCI-H1437 | 0.847 | 0.797 | 0.901 | 0.777 | 0.611 | 0.824 | 0.756 | 0.806 | 0.732 | 0.804 | 0.66 | 0.739 | 0.628 | 0.525 | 0.386 | 1.13 | 1.12 | 0.956 | 1.11 | 0.514
4 | HOP-62 | 0.766 | 0.542 | 0.644 | 0.771 | 0.469 | 0.681 | 0.591 | 0.535 | 0.58 | 0.469 | 0.375 | 0.477 | 0.418 | 0.212 | 0.252 | 0.906 | 0.616 | 0.406 | 0.392 | 0.19
5 | NCI-H2405 | 1.09 | 0.977 | 0.992 | 0.984 | 0.859 | 0.958 | 0.85 | 1 | 1.02 | 1.06 | 0.937 | 0.828 | 0.846 | 0.997 | 0.805 | 0.791 | 0.677 | 0.598 | 0.553 | 0.25
6 | LC-2-ad | 0.758 | 0.748 | 0.768 | 0.8 | 0.659 | 0.7 | 0.729 | 0.701 | 0.667 | 0.529 | 0.714 | 0.709 | 0.725 | 0.592 | 0.519 | 0.882 | 0.818 | 0.862 | 0.848 | 0.689
7 | NCI-H1944 | 0.581 | 0.498 | 0.498 | 0.492 | 0.243 | 0.592 | 0.522 | 0.735 | – | 0.568 | 0.434 | 0.417 | 0.356 | 0.366 | 0.225 | 0.527 | 0.402 | 0.296 | 0.277 | 0.121
8 | NCI-H322M | 0.903 | 0.831 | 0.899 | 0.818 | 0.499 | 0.925 | 0.842 | 0.848 | 0.851 | 0.855 | 0.783 | 0.842 | 0.712 | 0.653 | 0.458 | 0.565 | 0.488 | 0.361 | 0.382 | 0.366
9 | HCC-366 | 0.426 | 0.269 | 0.28 | 0.121 | 0.0472 | 0.46 | 0.37 | 0.25 | 0.354 | 0.285 | 0.654 | 0.342 | 0.19 | 0.0816 | 0.0499 | 0.235 | 0.148 | 0.0505 | 0.056 | 0.0429
10 | HCC-78 | 0.388 | 0.53 | 0.393 | 0.493 | 0.417 | 0.425 | 0.403 | 0.453 | 0.492 | 0.42 | 0.8 | 0.931 | 0.772 | 0.946 | 0.736 | 0.679 | 0.626 | 0.5 | 0.58 | 0.392
11 | CAL-12T | 0.931 | 0.762 | 0.826 | 0.833 | 0.686 | 0.894 | 0.699 | 0.787 | 0.705 | 0.799 | 0.869 | 0.73 | 0.816 | 0.691 | 0.549 | 0.568 | 0.514 | 0.512 | 0.352 | 0.239
12 | NCI-H522 | 1.02 | 0.811 | 0.921 | 0.994 | 0.732 | 1.02 | 0.886 | 0.808 | 0.941 | 0.806 | 0.627 | 0.698 | 0.645 | 0.657 | 0.594 | 0.888 | 0.707 | 0.787 | 0.962 | 0.767
13 | EKVX | 0.961 | 0.665 | 0.707 | 0.81 | 0.452 | 0.77 | 0.752 | 0.802 | 0.907 | 0.655 | 0.863 | 0.837 | 0.813 | 0.783 | 0.736 | 0.754 | 0.638 | 0.696 | 0.744 | 0.424
14 | HARA | 0.6 | 0.472 | 0.624 | 0.633 | 0.708 | 0.501 | 0.546 | 0.521 | 0.495 | 0.453 | 0.695 | 0.798 | 0.583 | 0.387 | 0.391 | 0.256 | 0.315 | 0.145 | 0.158 | 0.249
15 | LXF-289 | 0.78 | 0.843 | 0.827 | 0.812 | 0.786 | 0.787 | 0.724 | 0.846 | 0.731 | 0.629 | 1.3 | 1.05 | 1.24 | 1.37 | 0.903 | 0.931 | 1.08 | 1.12 | 0.971 | 0.686
16 | NCI-H1793 | 0.996 | 0.616 | – | 0.837 | 0.615 | – | 0.717 | 0.733 | 0.734 | 0.748 | 1 | 0.878 | – | 0.763 | 0.547 | 0.381 | 0.267 | – | 0.252 | 0.214

From the supplement of paper PMC10307832
